We go through three molecules from EP2990408B1, “NOVEL WHITENING AGENT” (Nichirei Biosciences Inc., priority 2013, dated 2014).

The structures appear in SMILES notation. Where two headings read alike, the source gives them in different places.

Data set [1] is described as follows: Stability test in aqueous citrate buffer solution (reversed-phase HPLC quantification). In kind it is physicochemical. The conditions noted are these: for percentages of compounds remaining in the test solutions after storage: 3 weeks, 20 mM citrate buffer solution (pH 6.0), 0.1% (weight/volume). The protocol: 3H2P phosphate monoester (1) (not according to the invention) and 3H2P phosphate bisester (2) (according to the invention) in the form of free acid were dissolved in a 20 mM citrate buffer solution (pH 6.0) to a concentration of 0.1% (weight/volume). The test solutions were stored at 4°C, 25°C, or 40°C for 3 weeks. 3H2P phosphate monoester (1) or 3H2P phosphate bisester (2) contained in the stored test solutions were quantitatively analyzed via reversed-phase HPLC (Inertsil® ODS-3, 5 µm, 4.6 × 250 mm, GL Sciences). For comparative example, the similar test was carried out in the manner described above with the use of 3H2P. […]

Data set [2] has as its system tyrosinase. Kind of data set: Test of tyrosinase activity inhibition (L-DOPA substrate, absorbance at 475 nm). The following applies: Fig. 2; for tyrosinase inhibitory activity compared with 3H2P: at the same concentration as 3H2P; for tyrosinase inhibitory activity: free acid, concentration of 0.1 to 0.5 mg/ml. The class given is biochemical. The protocol:
A solution of 6 mM L-DOPA, an aqueous solution of the test compound adjusted to a given concentration, and a phosphate buffer (pH 6.8) were mixed at a ratio of 2:2:1 by volume. The resulting substrate mixture (1.0 ml) was mixed with 0.2 ml of a solution of 0.017 mg/ml tyrosinase (Sigma), and the enzyme reaction was initiated at 37°C. The absorbance of the enzyme reaction solution was measured at 475 nm 0 and 3 minutes after the initiation of the reaction. The test group subjected to the enzyme reaction in the same manner described above, except that the test compound was not included, was designate as the blank test group. On the basis of the measured absorbance, the inhibition rate of tyrosinase activity was determined using the formula shown below. […] Inhibition rate of tyrosinase activity (%) = (1−(The difference in the absorbance of the test compound in the enzyme reaction solution between 0 minutes and 3 minutes after the initiation of the reaction)/(The difference in the absorbance of the blank in the enzyme reaction solution between 0 min and 3 min)) × 100 [formula]

Data set [3] has as its system Mouse-derived B16 melanoma cells 4A5. Kind of data set: Test for melanin production inhibition. The class given is cell-based. The conditions noted are these: for melanin amount relative to the melanin amount of the control group: concentration of 5 µg/ml, control group = 100, day 6 of culture; for melanin production inhibitory activity: concentrations of 1, 5, and 10 µg/ml, compared with 3H2P and arbutin, Fig. 1; for melanin production inhibitory activity, free acid compared with triethylamine salt: free acid (Fig. 1A) vs triethylamine salt (Fig. 1B). The protocol:
Mouse-derived B16 melanoma cells 4A5 (RIKEN) were seeded on a 6-well plate with the use of DMEM medium containing 10% FBS to a cell density of 5.0 × 10^4 cells/well (day 0 of culture), and culture was conducted at 37°C in the presence of 5% CO2 for 24 hours. On the following day, the cell-seeded medium was exchanged with a medium supplemented with the test compound at a given concentration (day 1 of culture). The medium was exchanged with a fresh medium every other day from day 2 and thereafter. The cells were recovered via treatment with trypsin on day 6 of culture, and melanin was extracted using an aqueous solution of 1 N sodium hydroxide. The absorbance of the melanin extract was measured at 405 nm, and the melanin amount was determined using a calibration curve prepared with the use of a melanin standard sample. In addition, the protein amount of the cells recovered in the manner described below was determined using the DC Protein Assay Kit (BIO-RAD) and employed as the cell count index. […] In the figure, the melanin amount and the cell count of test groups to which the test compounds had been added are represented relative to the measured melanin amount and cell count of the control group to which no test compound had been added (concentration: 0), which is designated as 100.

On to `O=c1occcc1OP(=O)(O)Oc1cccoc1=O` [3H2P phosphate bisester (2), 3-hydroxy-2-pyrone phosphate bisester], for which, in data set [1] (4°C), the “percentages of compounds remaining in the test solutions after storage” value (“percentages of compounds remaining” below) is on record as 100%. In addition, in data set [1] (25°C), the “percentages of compounds remaining” value was found to be 100%. Further, in data set [1] (40°C), the “percentages of compounds remaining” value is given as 99.3%. Besides, the “stability in weak-acidic to neutral water, compared with non-phosphorylated 3H2P” value in data set [1] (summary in words of Table 1) is listed as “remarkably improved stability”. In data set [2], the “tyrosinase inhibitory activity compared with 3H2P” value is on record as “lower than the tyrosinase inhibitory activity of 3H2P” and the tyrosinase inhibitory activity result is given as “low tyrosinase inhibitory activity”. In data set [3], the “melanin amount relative to the melanin amount of the control group” value is “approximately 50%”; the “melanin production inhibitory activity” value is “slightly lower than that of 3H2P but equivalent to that of arbutin”; the “melanin production inhibitory activity, free acid compared with triethylamine salt” value is recorded as “approximately equivalent melanin production inhibitory activity”.

Take `O=c1occcc1OP(=O)(O)O` [3H2P phosphate monoester (1), 3-hydroxy-2-pyrone phosphate monoester]: the “stability in weak-acidic to neutral water, compared with non-phosphorylated 3H2P” value in data set [1] was “remarkably improved stability”. In data set [2], the “tyrosinase inhibitory activity compared with 3H2P” value is listed as “lower than the tyrosinase inhibitory activity of 3H2P” and the tyrosinase inhibitory activity result is “low tyrosinase inhibitory activity”. Also, in data set [3], the “melanin amount relative to the melanin amount of the control group” value is “approximately 50%”; the “melanin production inhibitory activity” value is “slightly lower than that of 3H2P but equivalent to that of arbutin”; the “melanin production inhibitory activity, free acid compared with triethylamine salt” value is given as “approximately equivalent melanin production inhibitory activity”.

Take `O=c1occcc1O` [Compound 3H2P, 3-hydroxy-2-pyrone, reference compound]: the results for the “percentages of compounds remaining” value in data set [1] (4°C), in data set [1] (25°C) and in data set [1] (40°C) were 98.4%, 87.3% and 53.2%, respectively.
